# Measurements published in PMC5448077, “Development of an orally available inhibitor of CLK1 for skipping a mutated dystrophin exon in Duchenne muscular dystrophy” (Scientific Reports, 2017).
# Assays:
# Assay in all cases: biochemical
# [1] = biological target: INSR (Homo sapiens, UniProt P06213)
# Protocol: (§1) These assays rely on the phosphorylation of small synthetic peptides developed for each kinase, and detect activity by changes in electrophoretic mobility (MSA assay) or by binding of a fluorescently labelled peptide to a large micro-particle and concomitant polarization increases (IMAP assay). Reaction conditions for each kinase are described in Supplementary Table S5. All kinase assays were carried out at Carna Biosciences (Kobe, Japan). The inhibitory map was constructed using Kinome Render[41]. Inhibitor (4×), substrate/ATP-Metal (4×), and kinase (2×) solutions were prepared with assay buffer (20 mM HEPES, 0.01% Triton X-100, 2 mM DTT, pH 7.5) and mixed in 384-well plates at room temperature for 1 or 5 h depending on the kinase. Reactions were stopped by the addition of termination buffer (QuickScout Screening Assist MSA; Carna Biosciences). The entire reaction mixture was then applied to a LabChip system (Perkin-Elmer, Waltham, MA, USA) and the product and substrate peptide peaks were separated and quantified, and then heights of product (P) and substrate (S) peptide peaks were calculated. The level of kinase activity was evaluated with the following equation: activity = P/(P + S).
# [2] = biological target: CDK6/CycD3 (Homo sapiens, UniProt Q00534)
# Protocol: as §1
# [3] = biological target: T1, CaMK2β (Homo sapiens, UniProt Q13554)
# T1 construct: gene CAMK2B
# Protocol: as §1
# [4] = biological target: DDR1 (Homo sapiens, UniProt Q08345)
# Protocol: as §1
# [5] = biological target: HIPK1 (Homo sapiens, UniProt Q86Z02)
# Protocol: as §1
# [6] = biological target: NEK7 (Homo sapiens, UniProt Q8TDX7)
# Protocol: as §1
# [7] = biological target: KIT(V654A) (Homo sapiens, UniProt P10721, V654A)
# Protocol: as §1
# [8] = biological target: T2, NDR2 (Homo sapiens, UniProt Q9Y2H1)
# T2 construct: gene STK38L
# Protocol: as §1
# [9] = biological target: PIK3CA/PIK3R1 (Homo sapiens, UniProt P42336)
# Protocol: as §1
# [10] = biological target: T3, AMPKα1/β1/γ1 (Homo sapiens, UniProt Q13131)
# T3 construct: gene PRKAA1
# Protocol: as §1
# [11] = biological target: T4, MSSK1 (Homo sapiens, UniProt Q9UPE1)
# T4 construct: gene SRPK3
# Protocol: as §1
# [12] = biological target: MARK4 (Homo sapiens, UniProt Q96L34)
# Protocol: as §1
# [13] = biological target: SPHK1 (Homo sapiens, UniProt Q9NYA1)
# Protocol: as §1
# [14] = biological target: T5, IKKε (Homo sapiens, UniProt Q14164)
# T5 construct: gene IKBKE
# Protocol: as §1
# [15] = biological target: FGR (Homo sapiens, UniProt P09769)
# Protocol: as §1
# [16] = biological target: T6, ACK (Homo sapiens, UniProt Q07912)
# T6 construct: gene TNK2
# Protocol: as §1
# [17] = biological target: T7, IKKβ (Homo sapiens, UniProt O14920)
# T7 construct: gene IKBKB
# Protocol: as §1
# [18] = biological target: T8, ABL(T315I) (Homo sapiens, UniProt P00519, T315I)
# T8 construct: gene ABL1
# Protocol: as §1
# [19] = biological target: T9, CK1α (Homo sapiens, UniProt P48729)
# T9 construct: gene CSNK1A1
# Protocol: as §1
# [20] = biological target: MARK1 (Homo sapiens, UniProt Q9P0L2)
# Protocol: as §1
# [21] = biological target: AKT3 (Homo sapiens, UniProt Q9Y243)
# Protocol: as §1
# [22] = biological target: KIT(D816E) (Homo sapiens, UniProt P10721, D816E)
# Protocol: as §1
# [23] = biological target: T10, JNK3 (Homo sapiens, UniProt P53779)
# T10 construct: gene MAPK10
# Protocol: as §1
# [24] = biological target: SPHK2 (Homo sapiens, UniProt Q9NRA0)
# Protocol: as §1
# [25] = biological target: NEK1 (Homo sapiens, UniProt Q96PY6)
# Protocol: as §1
# [26] = biological target: MUSK (Homo sapiens, UniProt O15146)
# Protocol: as §1
# [27] = biological target: T11, RSK2 (Homo sapiens, UniProt P51812)
# T11 construct: gene RPS6KA3
# Protocol: as §1
# [28] = biological target: T12, MRCKβ (Homo sapiens, UniProt Q9Y5S2)
# T12 construct: gene CDC42BPB
# Protocol: as §1
# [29] = biological target: IRAK1 (Homo sapiens, UniProt P51617)
# Protocol: as §1
# [30] = biological target: CSK (Homo sapiens, UniProt P41240)
# Protocol: as §1
# [31] = biological target: BLK (Homo sapiens, UniProt P51451)
# Protocol: as §1
# T6 sequence (Q07912 whole entry): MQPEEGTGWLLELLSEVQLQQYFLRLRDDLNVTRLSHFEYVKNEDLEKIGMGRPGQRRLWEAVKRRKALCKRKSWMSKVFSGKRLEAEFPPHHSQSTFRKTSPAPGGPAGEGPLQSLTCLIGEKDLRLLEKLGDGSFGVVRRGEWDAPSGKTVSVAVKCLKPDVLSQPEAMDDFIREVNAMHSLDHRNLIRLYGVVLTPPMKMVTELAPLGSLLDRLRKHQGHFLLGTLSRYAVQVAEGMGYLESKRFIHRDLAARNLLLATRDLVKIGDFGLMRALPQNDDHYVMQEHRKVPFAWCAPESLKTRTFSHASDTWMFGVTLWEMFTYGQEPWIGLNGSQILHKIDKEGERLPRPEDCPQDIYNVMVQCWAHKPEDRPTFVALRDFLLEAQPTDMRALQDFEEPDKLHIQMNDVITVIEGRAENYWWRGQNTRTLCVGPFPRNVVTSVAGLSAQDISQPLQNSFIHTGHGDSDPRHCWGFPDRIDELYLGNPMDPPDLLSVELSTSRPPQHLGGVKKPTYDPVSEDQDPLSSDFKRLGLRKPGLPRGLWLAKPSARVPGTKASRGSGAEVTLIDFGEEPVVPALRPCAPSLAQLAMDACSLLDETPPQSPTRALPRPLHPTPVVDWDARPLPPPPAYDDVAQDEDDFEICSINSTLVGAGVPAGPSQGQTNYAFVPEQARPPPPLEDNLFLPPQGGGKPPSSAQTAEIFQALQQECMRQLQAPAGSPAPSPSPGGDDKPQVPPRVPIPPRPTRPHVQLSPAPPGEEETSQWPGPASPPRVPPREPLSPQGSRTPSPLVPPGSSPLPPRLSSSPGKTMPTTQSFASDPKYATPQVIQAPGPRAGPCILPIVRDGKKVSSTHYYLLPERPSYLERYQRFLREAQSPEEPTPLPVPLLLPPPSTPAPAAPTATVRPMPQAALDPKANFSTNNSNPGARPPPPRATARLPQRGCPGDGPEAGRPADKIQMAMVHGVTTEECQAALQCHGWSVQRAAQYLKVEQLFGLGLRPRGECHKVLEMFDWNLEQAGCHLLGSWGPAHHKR
# T3 sequence (Q13131 whole entry): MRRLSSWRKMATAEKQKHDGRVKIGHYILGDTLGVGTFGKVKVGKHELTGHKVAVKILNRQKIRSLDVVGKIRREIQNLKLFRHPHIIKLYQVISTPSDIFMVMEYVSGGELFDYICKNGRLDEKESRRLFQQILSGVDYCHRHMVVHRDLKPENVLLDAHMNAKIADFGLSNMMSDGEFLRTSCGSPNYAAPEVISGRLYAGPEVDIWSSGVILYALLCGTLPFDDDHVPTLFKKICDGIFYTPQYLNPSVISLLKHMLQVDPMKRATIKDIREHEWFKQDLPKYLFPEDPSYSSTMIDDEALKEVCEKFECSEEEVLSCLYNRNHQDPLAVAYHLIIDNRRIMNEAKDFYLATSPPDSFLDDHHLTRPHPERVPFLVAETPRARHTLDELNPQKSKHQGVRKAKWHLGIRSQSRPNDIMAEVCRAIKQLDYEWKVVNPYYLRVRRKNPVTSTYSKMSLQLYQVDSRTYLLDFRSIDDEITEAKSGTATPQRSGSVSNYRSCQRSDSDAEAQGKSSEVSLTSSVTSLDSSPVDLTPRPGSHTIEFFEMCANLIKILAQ
# T3 sequence (P54619 whole entry partner): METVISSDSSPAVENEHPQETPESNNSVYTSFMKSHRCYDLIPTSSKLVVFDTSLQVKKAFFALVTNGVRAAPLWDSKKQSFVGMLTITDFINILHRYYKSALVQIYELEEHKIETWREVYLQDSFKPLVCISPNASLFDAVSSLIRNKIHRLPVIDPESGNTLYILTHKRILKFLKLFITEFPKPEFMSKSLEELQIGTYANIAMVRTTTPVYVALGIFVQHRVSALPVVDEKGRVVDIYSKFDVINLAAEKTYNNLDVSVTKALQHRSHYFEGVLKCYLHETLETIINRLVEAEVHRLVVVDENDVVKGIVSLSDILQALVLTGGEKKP
# T3 sequence (Q9Y478 whole entry partner): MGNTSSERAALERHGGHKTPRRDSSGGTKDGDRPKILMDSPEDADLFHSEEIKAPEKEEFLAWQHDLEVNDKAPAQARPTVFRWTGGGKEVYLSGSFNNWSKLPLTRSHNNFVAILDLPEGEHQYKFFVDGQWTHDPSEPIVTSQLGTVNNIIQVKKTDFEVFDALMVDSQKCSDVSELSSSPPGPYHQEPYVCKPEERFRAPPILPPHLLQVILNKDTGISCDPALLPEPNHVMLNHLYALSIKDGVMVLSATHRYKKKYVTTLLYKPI
# Chain of PIK3CA/PIK3R1 (P42336 whole entry): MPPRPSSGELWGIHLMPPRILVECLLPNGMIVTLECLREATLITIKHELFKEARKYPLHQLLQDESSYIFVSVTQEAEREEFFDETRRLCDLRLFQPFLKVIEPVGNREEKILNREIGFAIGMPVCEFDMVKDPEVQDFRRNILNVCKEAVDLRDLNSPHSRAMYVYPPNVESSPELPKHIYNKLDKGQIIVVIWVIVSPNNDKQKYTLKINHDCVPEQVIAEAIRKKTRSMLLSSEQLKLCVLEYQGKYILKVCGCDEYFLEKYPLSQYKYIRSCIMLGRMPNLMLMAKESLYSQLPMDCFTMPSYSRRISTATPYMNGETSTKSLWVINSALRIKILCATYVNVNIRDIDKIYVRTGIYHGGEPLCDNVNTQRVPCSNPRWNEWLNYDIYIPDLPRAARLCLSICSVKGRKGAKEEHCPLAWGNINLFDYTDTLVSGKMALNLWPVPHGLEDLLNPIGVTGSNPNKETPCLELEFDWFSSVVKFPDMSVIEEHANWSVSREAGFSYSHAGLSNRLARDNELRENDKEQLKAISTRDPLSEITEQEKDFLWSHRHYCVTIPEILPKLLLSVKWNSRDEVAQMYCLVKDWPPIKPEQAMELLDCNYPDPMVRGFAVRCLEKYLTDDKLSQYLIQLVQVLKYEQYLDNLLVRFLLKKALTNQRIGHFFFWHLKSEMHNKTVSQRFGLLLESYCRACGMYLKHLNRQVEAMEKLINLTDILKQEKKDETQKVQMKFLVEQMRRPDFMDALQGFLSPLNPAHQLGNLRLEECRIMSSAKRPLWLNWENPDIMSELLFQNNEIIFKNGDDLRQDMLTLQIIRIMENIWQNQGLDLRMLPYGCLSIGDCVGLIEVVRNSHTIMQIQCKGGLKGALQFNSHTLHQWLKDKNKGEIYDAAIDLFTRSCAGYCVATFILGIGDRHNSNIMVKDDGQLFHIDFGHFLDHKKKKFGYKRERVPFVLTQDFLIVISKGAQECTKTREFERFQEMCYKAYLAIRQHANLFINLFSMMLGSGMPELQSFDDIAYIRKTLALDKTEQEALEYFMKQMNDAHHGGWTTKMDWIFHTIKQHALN
# Chain of PIK3CA/PIK3R1 (P27986 whole entry partner): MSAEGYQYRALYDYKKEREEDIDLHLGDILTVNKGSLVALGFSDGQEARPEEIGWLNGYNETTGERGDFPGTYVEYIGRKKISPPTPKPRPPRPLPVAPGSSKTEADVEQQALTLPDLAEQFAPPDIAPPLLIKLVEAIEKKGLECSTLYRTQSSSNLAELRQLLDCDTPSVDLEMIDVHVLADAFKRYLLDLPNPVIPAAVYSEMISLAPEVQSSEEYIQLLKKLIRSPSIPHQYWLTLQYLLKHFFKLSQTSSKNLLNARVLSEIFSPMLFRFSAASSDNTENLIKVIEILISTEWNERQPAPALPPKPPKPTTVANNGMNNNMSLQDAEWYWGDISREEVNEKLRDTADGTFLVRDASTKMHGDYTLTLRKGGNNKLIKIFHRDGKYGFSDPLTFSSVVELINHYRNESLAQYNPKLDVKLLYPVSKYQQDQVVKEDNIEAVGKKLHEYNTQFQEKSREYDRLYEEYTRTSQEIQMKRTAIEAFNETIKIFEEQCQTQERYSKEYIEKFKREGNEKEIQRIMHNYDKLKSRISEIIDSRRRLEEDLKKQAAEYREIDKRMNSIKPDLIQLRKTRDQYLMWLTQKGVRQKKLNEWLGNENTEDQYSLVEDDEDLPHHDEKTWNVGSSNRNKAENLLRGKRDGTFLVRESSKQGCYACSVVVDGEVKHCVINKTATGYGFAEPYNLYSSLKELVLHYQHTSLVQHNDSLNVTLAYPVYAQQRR
# Chain of KIT(V654A) (P10721 whole entry V654A): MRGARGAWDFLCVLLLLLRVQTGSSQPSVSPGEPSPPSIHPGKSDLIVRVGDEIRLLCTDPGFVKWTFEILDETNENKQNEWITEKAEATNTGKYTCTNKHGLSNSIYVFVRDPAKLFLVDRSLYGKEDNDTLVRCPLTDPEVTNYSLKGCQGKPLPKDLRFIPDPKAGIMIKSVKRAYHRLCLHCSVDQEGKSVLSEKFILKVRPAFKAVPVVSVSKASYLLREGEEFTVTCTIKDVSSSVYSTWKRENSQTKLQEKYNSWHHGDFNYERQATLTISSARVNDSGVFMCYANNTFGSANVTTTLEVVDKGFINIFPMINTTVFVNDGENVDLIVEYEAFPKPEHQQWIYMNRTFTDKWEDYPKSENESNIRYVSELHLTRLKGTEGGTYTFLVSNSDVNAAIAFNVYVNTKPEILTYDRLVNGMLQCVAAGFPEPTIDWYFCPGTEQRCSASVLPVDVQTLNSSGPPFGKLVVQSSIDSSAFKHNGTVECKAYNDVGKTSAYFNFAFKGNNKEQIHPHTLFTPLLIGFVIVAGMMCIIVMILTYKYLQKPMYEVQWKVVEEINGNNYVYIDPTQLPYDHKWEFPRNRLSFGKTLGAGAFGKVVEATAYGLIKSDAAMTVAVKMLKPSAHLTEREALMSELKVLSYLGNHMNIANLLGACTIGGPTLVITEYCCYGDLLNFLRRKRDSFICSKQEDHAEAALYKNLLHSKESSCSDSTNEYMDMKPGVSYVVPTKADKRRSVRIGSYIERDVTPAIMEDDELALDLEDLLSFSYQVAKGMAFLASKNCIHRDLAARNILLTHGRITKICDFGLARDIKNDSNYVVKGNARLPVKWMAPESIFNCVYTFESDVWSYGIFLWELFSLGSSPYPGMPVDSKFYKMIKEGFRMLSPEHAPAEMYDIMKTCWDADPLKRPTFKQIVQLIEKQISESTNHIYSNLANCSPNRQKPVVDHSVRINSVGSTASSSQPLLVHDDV
# Chain of KIT(D816E) (P10721 whole entry D816E): as the sequence (P10721 whole entry V654A) above, with A654V, D816E counted along it
compound,measurement,setting,value
"c1cc(-c2ccc3[nH]ncc3c2)ccn1 [TG693, 5-(4-pyridinyl)-1H-indazole]",inhibition at 1 µM,[1],-5.9%
same,inhibition at 1 µM,[2],9.1%
same,inhibition at 1 µM,[3],2.8%
same,inhibition at 1 µM,[4],-6%
same,inhibition at 1 µM,[5],-3.5%
same,inhibition at 1 µM,[6],-9%
same,inhibition at 1 µM,[7],-1.5%
same,inhibition at 1 µM,[8],7.5%
same,inhibition at 1 µM,[9],36.8%
same,inhibition at 1 µM,[10],-6.5%
same,inhibition at 1 µM,[11],-7.3%
same,inhibition at 1 µM,[12],25.1%
same,inhibition at 1 µM,[13],-2.3%
same,inhibition at 1 µM,[14],6.1%
same,inhibition at 1 µM,[15],-5.9%
same,inhibition at 1 µM,[16],-1.1%
same,inhibition at 1 µM,[17],14.6%
same,inhibition at 1 µM,[18],6.5%
same,inhibition at 1 µM,[19],11.9%
same,inhibition at 1 µM,[20],13.3%
same,inhibition at 1 µM,[21],-4.6%
same,inhibition at 1 µM,[22],-6.8%
same,inhibition at 1 µM,[23],-4.4%
same,inhibition at 1 µM,[24],4.1%
same,inhibition at 1 µM,[25],-1.5%
same,inhibition at 1 µM,[26],-5%
same,inhibition at 1 µM,[27],2.1%
same,inhibition at 1 µM,[28],-7.3%
same,inhibition at 1 µM,[29],4.2%
same,inhibition at 1 µM,[30],-1.2%
same,inhibition at 1 µM,[31],-2.2%
